Assay results from patent US12617777B2, “GPR84 antagonists and uses thereof” (Liminal BioSciences Limited, priority 2021, dated 2026).

target: T1, human GPR84 receptor (Homo sapiens, UniProt Q9NQS5); assay: Gαi biosensor BRET assay in HEK293 cells (antagonism of ZQ-16); assay type: cell-based; details: HEK293, single concentration 2 μM (designated A)
T1 construct: host or cells: HEK293, transient transfection
How it was run: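 Antagonist mode: test compound 5 min at 37° C, followed by ZQ-16 agonist (200 nmol/L, 5 min, room temperature), in HEK293 cells transfected with GPR84 plus Rluc8-tagged Gαi2, GFP10-Gγ2 and Gβ1. Readout as GFP10/Rluc8 emission ratio after 5 μmol/L coelenterazine 400A, net of Rluc8-only and vehicle signal.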

T1 sequence (Q9NQS5 whole entry): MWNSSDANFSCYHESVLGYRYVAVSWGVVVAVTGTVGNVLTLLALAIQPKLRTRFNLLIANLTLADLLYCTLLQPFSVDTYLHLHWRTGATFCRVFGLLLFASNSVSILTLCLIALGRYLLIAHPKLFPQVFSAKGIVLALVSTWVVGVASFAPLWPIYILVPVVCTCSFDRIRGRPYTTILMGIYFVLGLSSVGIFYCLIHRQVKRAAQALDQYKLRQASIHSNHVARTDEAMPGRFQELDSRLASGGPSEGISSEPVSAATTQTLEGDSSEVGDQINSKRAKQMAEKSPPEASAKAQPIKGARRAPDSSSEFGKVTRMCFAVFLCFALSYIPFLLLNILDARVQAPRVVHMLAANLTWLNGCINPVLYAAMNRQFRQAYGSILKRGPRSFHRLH

| inhibition at 2 µM [%] | SMILES |
| --- | --- |
| 50 to 75 | Cc1cc(C#CCN2CC(C)(C)C2)ccc1-c1cn(CC2OCC(F)(F)CO2)nn1 [Compound I-700] |
| ≤ 25 | Cc1ccc(C#CC2CC2)nc1-c1cn(Cc2ccccn2)nn1 [Compound I-480] |

same assay, conditions: HEK293, single concentration 5 μM (designated D)

| inhibition at 5 µM [%] | SMILES |
| --- | --- |
| ≤ 25 | Cc1cc(C#CC2CC2)ccc1-c1cn(C[C@@H]2CCCCO2)nn1 [Compound I-174] |

same assay, conditions: HEK293, single concentration 10 μM (designated F)

| inhibition at 10 µM [%] | SMILES |
| --- | --- |
| ≤ 25 | Cc1cc(N2CCNCC2)ccc1-c1cn(CC2CCCCO2)nn1 (centres unmarked) [Compound I-183] |
| 50 to 75 | CC(c1ccc(C#CC2CC2)cc1)c1cn(CC2CCCCO2)nn1 (centres unmarked) [Compound I-313] |
| > 75 | CCc1cc(C#CCN2CCC(F)(F)CC2)cnc1-c1cn(CC2CCCCO2)nn1 (centres unmarked) [Compound I-275] |
| > 75 | CN(C)c1cc(N2CC(C)(CO)C2)c(F)cc1-c1cn(CC2OCC3(CCC3)O2)nn1 (centres unmarked) [Compound I-786] |
| ≤ 25 | COC(c1cn(CC2CCCCO2)nn1)c1cc(C#CC(C)(C)O)ccc1F (centres unmarked) [Compound I-632] |
| 25 to 50 | COC1CCN(c2ccc(-c3cn(CC4CCCCO4)nn3)c(C)c2)CC1 (centres unmarked) [Compound I-437] |
| 25 to 50 | Cc1cc(C#CC2CC2)ccc1-c1cn(CC(O)CO)nn1 (centres unmarked) [Compound I-224] |
| 25 to 50 | Cc1cc(N2CCN(Cc3cncnc3)CC2)ccc1-c1cn(CC2CCCCO2)nn1 (centres unmarked) [Compound I-566] |
| > 75 | CC1(C)CN(c2ccc(-c3cn(CC4CCCCO4)nn3)c(OCCO)c2)C1 (centres unmarked) [Compound I-280] |
| 25 to 50 | CN(C)Cc1cc(C#CC2CC2)ccc1-c1cn(CC2CCCCO2)nn1 (centres unmarked) [Compound I-356] |
| > 75 | Cc1cc(N2CC(C)(C)C2)cnc1-c1cn(CC2CCCCO2)nn1 (centres unmarked) [Compound I-380] |
| 50 to 75 | Cc1cc(N2CC3(CCN(Cc4ccccn4)CC3)C2)ccc1-c1cn(CC2CCCCO2)nn1 (centres unmarked) [Compound I-311] |
| ≤ 25 | Cc1cc(C#CC2CC2)ccc1-c1cn(CC2CCCCN2S(C)(=O)=O)nn1 (centres unmarked) [Compound I-191] |
| > 75 | CC1(C)COC(Cn2cc(-c3ncc(C#CC4CC4)cc3Cl)nn2)OC1 [Compound I-708] |
| ≤ 25 | COCCn1cc(-c2ccc(C#CCNc3ccccc3)cc2C)nn1 [Compound I-161] |
| > 75 | COc1cc(N2CC(C)(C)C2)ccc1-c1cn(CC2CCCCO2)nn1 (centres unmarked) [Compound I-279] |
| > 75 | CCOCC#Cc1cnc(-c2cn(CC3OCC(C)(C)CO3)nn2)c(OC2CC2)c1 [Compound I-819] |
| 25 to 50 | Cc1cc(N2CC(C)(C)C2)ccc1-c1cn(CC2CCCCO2)nn1 (centres unmarked) [Compound I-864] |
| > 75 | Cc1cc(C#CC2CC(F)(F)C2)ccc1-c1cn(CC2OCC(C)(C)CO2)nn1 [Compound I-662] |
| ≤ 25 | Clc1ccc(C#CC2CC2)cc1-c1cn(CC2CCCCO2)nn1 (centres unmarked) [Compound I-134] |
| > 75 | Cc1cc(C#CC2CC(F)(F)C2)cnc1-c1cn(CC2OCC(C)(C)CO2)nn1 [Compound I-653] |
| ≤ 25 | Cc1cc(NC(=O)N2CCCC2)ccc1-c1cn(CC2CCCCO2)nn1 (centres unmarked) [Compound I-110] |
| ≤ 25 | C(#CC1CC1)c1csc(-c2cn(CC3CCCCO3)nn2)c1 (centres unmarked) [Compound I-242] |

| SMILES | inhibition at 10 µM [%] |
| --- | --- |
| Cc1cc(N2CC3CCC(C2)N3Cc2ccccn2)ccc1-c1cn(CC2CCCCO2)nn1 (centres unmarked) [Compound I-466] | ≤ 25 |

same assay, conditions: HEK293, single concentration 25 μM (designated I)

| inhibition at 25 µM [%] | SMILES |
| --- | --- |
| ≤ 25 | CC(C)(C)C#Cc1ccc(-c2cn(CC3CCCCO3)nn2)cc1 (centres unmarked) [Compound I-58] |
| ≤ 25 | Cc1cn(CC2CCCCO2)nc1-c1ccc(C#CC2CC2)cc1 (centres unmarked) [Compound I-316] |
| ≤ 25 | C(#CC1CC1)c1ccc(-c2nnn(CC3COCCO3)n2)cc1 (centres unmarked) [Compound I-3] |

same assay, conditions: HEK293 cells, antagonism of 200 nmol/L ZQ-16

| IC50 [nM] | SMILES |
| --- | --- |
| > 3000 | Cc1cc(C#CC2CC2)ccc1-c1cn(C[C@@H]2CCCCO2)nn1 [Compound I-174] |
| 300 to 1000 | CN(C)c1cc(N2CC(C)(CO)C2)c(F)cc1-c1cn(CC2OCC3(CCC3)O2)nn1 (centres unmarked) [Compound I-786] |
| ≤ 300 | C[C@@H]1Cc2oc(C(=O)NCc3cnc(C4CC4)cn3)c(C(F)(F)F)c2-c2nn(C[C@H]3COCCO3)cc21 [Compound I-775] |
| ≤ 300 | CC1(C)COC(Cn2cc(-c3ncc(C#CC4CC4)cc3Cl)nn2)OC1 [Compound I-708] |
| ≤ 300 | CCOCC#Cc1cnc(-c2cn(CC3OCC(C)(C)CO3)nn2)c(OC2CC2)c1 [Compound I-819] |
| ≤ 300 | CC1(C)COC(Cn2cc(-c3ncc(C#CCO)cc3OC3CC3)nn2)OC1 [Compound I-771] |
| 300 to 1000 | Cc1cc(N2CC(C)(C)C2)ccc1-c1cn(CC2CCCCO2)nn1 (centres unmarked) [Compound I-864] |
| > 3000 | Cc1cc(C#CC2CC(F)(F)C2)ccc1-c1cn(CC2OCC(C)(C)CO2)nn1 [Compound I-662] |
